The values below are quoted from earlier work in patent US9877974B2, “Topical formulations comprising a steroid” (Dr. Reddy's Laboratories Ltd., priority 2009, dated 2018).

With `CCC(=O)OCC(=O)[C@@]1(OC(=O)CC)[C@@H](C)C[C@H]2[C@@H]3CCC4=CC(=O)C=C[C@]4(C)[C@@]3(F)[C@@H](O)C[C@@]21C` [Betamethasone dipropionate, 9-fluoro-11(β),17,21-trihydroxy-16(β)-methylpregna-1,4-diene-3,20-dione 17,21-dipropionate], the Solubility in acetone entry (acetone) is listed as “freely soluble”. Moreover, where the note is “chloroform”, the Solubility in chloroform entry is “freely soluble”. The Solubility in ethanol entry (ethanol) is on record as “sparingly soluble”. For the same compound, the Solubility in water result (water) is listed as “practically insoluble”.
